Measurements taken from ChEMBL document CHEMBL1156689, “Comparison of the cytotoxic activities of naturally occurring hydroxyanthraquinones and hydroxynaphthoquinones” (Eur J Med Chem, 2008).

Experiments:
HCT-116 = test: Cytotoxicity against MDR1 Pgp under-expressing human HCT116 cells after 24 hrs by MTT assay; format: functional, cell-based; details: HCT-116, 24 h
HepG2 = test: Cytotoxicity against MDR1 Pgp overexpressing human HepG2 cells after 24 hrs by MTT assay; format: functional, cell-based; details: HepG2, 24 h

CC(C)=CC[C@H](OC(=O)C(C)C)C1=CC(=O)c2c(O)ccc(O)c2C1=O [ISOBUTYLALKANNIN]
IC50 (HCT-116): 0.3 µM
IC50 (HepG2): 0.42 µM

O=C(O)c1cc(O)c2c(c1)[C@H]([C@H]1c3cc(C(=O)O)cc(O)c3C(=O)c3c(O[C@@H]4O[C@H](CO)[C@@H](O)[C@H](O)[C@H]4O)cccc31)c1cccc(O[C@@H]3O[C@H](CO)[C@@H](O)[C@H](O)[C@H]3O)c1C2=O [Sennoside A]
IC50 (HCT-116): 68.2 µM
IC50 (HepG2): 51.6 µM

CC(=O)O[C@H](CC=C(C)C)C1=CC(=O)c2c(O)ccc(O)c2C1=O [ACETYLSHIKONIN]
IC50 (HCT-116): 0.45 µM
IC50 (HepG2): 0.38 µM

CC(C)=CC[C@@H](OC(=O)CC(C)(C)O)C1=CC(=O)c2c(O)ccc(O)c2C1=O [BETA-HYDROXYISOVALERYLSHIKONIN]
IC50 (HCT-116): 0.37 µM
IC50 (HepG2): 0.59 µM

CCO[C@H](CC=C(C)C)C1=CC(=O)c2c(O)ccc(O)c2C1=O [ETHYLSHIKONIN]
IC50 (HCT-116): 0.45 µM
IC50 (HepG2): 0.42 µM

O=C1c2cccc(O)c2C(=O)c2c(O)cc(CO)cc21 [ALOE-EMODIN]
IC50 (HCT-116): 8.7 µM
IC50 (HepG2): 10 µM

CCC(=O)Oc1cccc2c1C(=O)c1c(OC(=O)CC)cc(C)cc1C2=O
IC50 (HCT-116): 14.8 µM
IC50 (HepG2): > 100 µM

CCC(=O)Oc1cc(C)cc2c1C(=O)c1c(OC(=O)CC)cc(OC)cc1C2=O
IC50 (HCT-116): 9.2 µM
IC50 (HepG2): > 100 µM

O=C(O)c1cc(O)c2c(c1)C(=O)c1cccc(O)c1C2=O [RHEIN]
IC50 (HCT-116): 13 µM
IC50 (HepG2): 12.3 µM

O=C1c2cc(CO)cc(O)c2C(=O)c2c(O[C@@H]3O[C@H](CO)[C@@H](O)[C@H](O)[C@H]3O)cccc21
IC50 (HCT-116): 75 µM
IC50 (HepG2): > 100 µM

Cc1cc(O)c2c(c1)C(=O)c1cccc(O)c1C2=O [CHRYSOPHANOL]
IC50 (HCT-116): 47.4 µM
IC50 (HepG2): 64.4 µM

Cc1cc(O)c2c(c1)C(=O)c1cc(O)cc(O)c1C2=O [EMODIN]
IC50 (HCT-116): 5.7 µM
IC50 (HepG2): 5.2 µM

CC(=O)O[C@@H](CC=C(C)C)C1=CC(=O)c2c(O)ccc(O)c2C1=O [ACETYLALKANNIN]
IC50 (HCT-116): 0.34 µM
IC50 (HepG2): 0.39 µM

CC(C)=CC[C@@H](O)C1=CC(=O)c2c(O)ccc(O)c2C1=O [SHIKONIN]
IC50 (HCT-116): 0.23 µM
IC50 (HepG2): 0.24 µM

CC(C)=CC[C@@H](OC(=O)C(C)C)C1=CC(=O)c2c(O)ccc(O)c2C1=O [ISOBUTYLSHIKONIN]
IC50 (HCT-116): 0.34 µM
IC50 (HepG2): 0.22 µM

COc1cc(O)c2c(c1)C(=O)c1cc(C)cc(O)c1C2=O [PHYSCION]
IC50 (HCT-116): 19 µM
IC50 (HepG2): 77.3 µM

CC(C)=CC[C@H](OC(=O)C1OC1C)C1=CC(=O)c2c(O)ccc(O)c2C1=O (some centres undefined)
IC50 (HCT-116): 0.39 µM
IC50 (HepG2): 0.34 µM
